Test results: patent publication US20260138949A1, “NOVEL COMPOUND AS PHOSPHOLIPASE D INHIBITOR AND USE THEREOF” (UIF (UNIVERSITY INDUSTRY FOUNDATION), YONSEI UNIVERSITY, priority 2022, published 2026)

Tested on: phospholipase D1
Experiment: PLD activity in HCT116 cells ([3H]phosphatidylbutanol, TLC)
Format: cell-based, human
Details: compound 10 μM, cells without the compound = 100%
Protocol: To evaluate the inhibitory effect of the compounds according to the present invention on phospholipase D1 activity, experiments were conducted as follows.
For the analysis of PLD activity in cells, human colon cancer cell line (HCT116) was cultured in a 6-well plate at 37° C. for 24 hours, washed twice with phosphate-buffered saline (PBS), and then replaced with medium containing [^3H]myristate and cultured for 24 hours. After the culture, the cells were washed three times with PBS, treated with 1-butanol, and the drug was added to a final concentration of 10 μM. The cells were trypsinized and suspended, and the amount of [^3H]phosphatidylbutanol produced in the cell suspension was measured and evaluated for PLD activity using thin layer chromatography (TLC), and the results are shown in Table 1 below.
The Remaining activity % at 10 μM in Table 1 is calculated by setting the amount of [^3H]phosphatidylbutanol produced in cells without the compound as 100% and calculating the amount of [^3H]phosphatidylbutanol produced in cells treated with the compound as a percentage. Therefore, the lower the value of Remaining activity %, the higher the PLD inhibitory activity.

Structure (SMILES) | Remaining activity % at 10 μM | Remaining activity % at 10 μM (10 µM) [%]
O=C(Cc1c[nH]c2ccccc12)NCCc1ccccc1 [Example 1-59, 2-(1H-indol-3-yl)-N-phenethylacetamide] | not active | –
O=C(CCc1c[nH]c2ccccc12)Nc1ccc(Br)cc1 [Example 1-65, N-(4-bromophenyl)-3-(1H-indol-3-yl)propanamide] | not active | –
O=C(Nc1ccc(O)c(O)c1)c1cc2cc(F)ccc2[nH]1 [Example 1-110, N-(3,4-dihydroxyphenyl)-5-fluoro-1H-indole-2-carboxamide] | 28.85% | –
COc1ccc(NC(=O)c2c[nH]c3ccccc23)cc1OC [Example 1-3, N-(3,4-dimethoxyphenyl)-1H-indole-3-carboxamide] | 62.73% | –
O=C(CCCc1c[nH]c2ccccc12)Nc1ccc(Cl)c(Cl)c1 [Example 1-79, N-(3,4-dichlorophenyl)-4-(1H-indol-3-yl)butanamide] | 61.61% | –
O=C(Cc1c[nH]c2ccccc12)NCCc1ccc(Br)cc1 [Example 1-60, N-(4-bromophenethyl)-2-(1H-indol-3-yl)acetamide] | 82.15% | –
COc1cccc(NC(=O)Cc2c[nH]c3ccccc23)c1 [Example 1-10, 2-(1H-indol-3-yl)-N-(3-methoxyphenyl)acetamide] | 89.33% | –
O=C(Cc1c[nH]c2ccccc12)NCc1ccccn1 [Example 1-56, 2-(1H-indol-3-yl)-N-(pyridin-2-ylmethyl)acetamide] | 96.79% | –
O=C(Cc1c[nH]c2ccccc12)NCc1cccc(F)c1 [Example 1-36, N-(3-fluorobenzyl)-2-(1H-indol-3-yl)acetamide] | 76.23% | –
COc1ccc(CNC(=O)Cc2c[nH]c3ccccc23)c(OC)c1 [Example 1-44, N-(2,4-dimethoxybenzyl)-2-(1H-indol-3-yl)acetamide] | 54.83% | –
O=C(CCCc1c[nH]c2ccccc12)Nc1ccc(Br)cc1 [Example 1-76, N-(4-bromophenyl)-4-(1H-indol-3-yl)butanamide] | 79.65% | –
O=C(CCc1c[nH]c2ccccc12)Nc1ccc(O)c(O)c1 [Example 1-108, N-(3,4-dihydroxyphenyl)-3-(1H-indol-3-yl)propanamide] | 76.29% | –
O=C(Cc1c[nH]c2ccccc12)Nc1ccc(O)c(O)c1 [Example 1-106, N-(3,4-dihydroxyphenyl)-2-(1H-indol-3-yl)acetamide] | 62.00% | –
O=C(Nc1ccc(Br)cc1)c1c[nH]c2ccccc12 [Example 1-2, N-(4-bromophenyl)-1H-indole-3-carboxamide] | 85.52% | –
O=C(Cc1c[nH]c2ccccc12)NCc1ccncc1 [Example 1-58, 2-(1H-indol-3-yl)-N-(pyridin-4-ylmethyl)acetamide] | not active | –
COc1ccc(COC(=O)c2cc3ccccc3[nH]2)cc1 [Example 1-116, 4-methoxybenzyl 1H-indole-2-carboxylate] | 52.66% | –
O=C(Cc1c[nH]c2ccccc12)NCc1ccc([N+](=O)[O-])cc1 [Example 1-46, 2-(1H-indol-3-yl)-N-(4-nitrobenzyl)acetamide] | 57.41% | –
O=C(CCc1c[nH]c2ccccc12)Nc1ccc(Cl)c(Cl)c1 [Example 1-69, N-(3,4-dichlorophenyl)-3-(1H-indol-3-yl)propanamide] | not active | –
O=C(Cc1c[nH]c2ccccc12)NCc1ccccc1Cl [Example 1-48, N-(2-chlorobenzyl)-2-(1H-indol-3-yl)acetamide] | 75.72% | –

Structure (SMILES) | Remaining activity % at 10 μM | Remaining activity % at 10 μM (10 µM) [%]
COc1cc(NC(=O)c2cc3cc(F)ccc3[nH]2)cc(OC)c1 [Example 1-96, N-(3,5-dimethoxyphenyl)-5-fluoro-1H-indole-2-carboxamide] | 98.38% | –
O=C(NNc1ccc(Cl)c(Cl)c1)c1cc2ccccc2[nH]1 [Example 1-89, N′-(3,4-dichlorophenyl)-1H-indole-2-carbohydrazide] | – | 83.22
COc1ccc(CNC(=O)c2cc3cc(F)ccc3[nH]2)cc1OC [Example 1-94, N-(3,4-dimethoxybenzyl)-5-fluoro-1H-indole-2-carboxamide] | 53.46% | –
O=C(CCCc1c[nH]c2ccccc12)Nc1cc(C(F)(F)F)cc(C(F)(F)F)c1 [Example 1-77, N-(3,5-bis(trifluoromethyl)phenyl)-4-(1H-indol-3-yl)butanamide] | 50.79% | –
O=C(CCCc1c[nH]c2ccccc12)Nc1ccc(F)cc1 [Example 1-75, N-(4-fluorophenyl)-4-(1H-indol-3-yl)butanamide] | not active | –
O=C(Cc1c[nH]c2ccccc12)NCc1ccc(Cl)cc1 [Example 1-49, N-(4-chlorobenzyl)-2-(1H-indol-3-yl)acetamide] | 59.74% | –
O=C(Cc1c[nH]c2ccccc12)NNc1ccc(Cl)c(Cl)c1 [Example 1-54, N′-(3,4-dichlorophenyl)-2-(1H-indol-3-yl)acetohydrazide] | not active | –
O=C(Cc1c[nH]c2ccccc12)Nc1cccc([N+](=O)[O-])c1 [Example 1-30, 2-(1H-indol-3-yl)-N-(3-nitrophenyl)acetamide] | not active | –
O=C(Cc1c[nH]c2ccccc12)Nc1ccccc1 [Example 1-23, 2-(1H-indol-3-yl)-N-phenylacetamide] | not active | –
O=C(Nc1ccc(Cl)c([N+](=O)[O-])c1)c1cc2ccccc2[nH]1 [Example 1-85, N-(4-chloro-3-nitrophenyl)-1H-indole-2-carboxamide] | 53.78% | –
O=C(Nc1ccc(Cl)c(Cl)c1)c1cc2ccccc2[nH]1 [Example 1-86, N-(3,4-dichlorophenyl)-1H-indole-2-carboxamide] | not active | –
O=C(NCc1ccc(Cl)c(Cl)c1)c1c[nH]c2ccccc12 [Example 1-5, N-(3,4-dichlorobenzyl)-1H-indole-3-carboxamide] | 89.34% | –
O=C(Nc1ccc(F)cc1)c1cc2ccccc2[nH]1 [Example 1-83, N-(4-fluorophenyl)-1H-indole-2-carboxamide] | not active | –
COc1ccc(CNC(=O)CCc2c[nH]c3ccccc23)cc1 [Example 1-71, 3-(1H-indol-3-yl)-N-(4-methoxybenzyl)propanamide] | 51.45% | –
COc1ccc(NC(=O)Cc2c[nH]c3ccccc23)cc1OC [Example 1-28, N-(3,4-dimethoxyphenyl)-2-(1H-indol-3-yl)acetamide] | not active | –
O=C(Cc1c[nH]c2ccccc12)Nc1ccc(Br)cn1 [Example 1-21, N-(5-bromopyridin-2-yl)-2-(1H-indol-3-yl)acetamide] | 46.59% | –
COC(=O)c1ccc2[nH]c(C(=O)Nc3cc(C(F)(F)F)cc(C(F)(F)F)c3)cc2c1 [Example 1-100, methyl 2-((3,5-bis(trifluoromethyl)phenyl)carbamoyl)-1H-indole-5-carboxylate] | 46.12% | –
Cc1cc(C)cc(NC(=O)c2cc3cc(F)ccc3[nH]2)c1 [Example 1-103, N-(3,5-dimethylphenyl)-5-fluoro-1H-indole-2-carboxamide] | 75.43% | –
